Experimental data: US12384768B2, “Isoxazole carboxylic acids as LPA antagonists” (BRISTOL-MYERS SQUIBB COMPANY, priority 2019, dated 2025)

Biological target: T1, human LPA1 (Homo sapiens, UniProt Q92633)
T1 construct: expressed in transfected cells; host or cells: Chinese hamster ovary (CHO) cells
Experiment: LPA1 functional antagonist assay (calcium flux)
Assay type: cell-based
Settings: CHO cells overexpressing human LPA1; inhibition of calcium flux induced by 10 nM LPA; read-out: hLPA1 IC50
Description: The effectiveness of compounds of the present invention as LPA1 inhibitors can be determined in an LPA1 functional antagonist assay as follows:
Chinese hamster ovary cells overexpressing human LPA1 were plated overnight (15,000 cells/well) in poly-D-lysine coated 384-well microplates (Greiner bio-one, Cat #781946) in DMEM/F12 medium (Gibco, Cat #11039). Following overnight culture, cells were loaded with calcium indicator dye (AAT Bioquest Inc, Cat #34601) for 30 minutes at 37° C. The cells were then equilibrated to room temperature for 30 minutes before the assay. Test compounds solubilized in DMSO were transferred to 384 well non-binding surface plates (Corning, Cat #3575) using the Labcyte Echo acoustic dispense and diluted with assay buffer [1×HBSS with calcium/magnesium (Gibco Cat #14025-092), 20 mM HEPES (Gibco Cat #15630-080) and 0.1% fatty acid free BSA (Sigma Cat #A9205)] to a final concentration of 0.5% DMSO. Diluted compounds were added to the cells by FDSS6000 (Hamamatsu) at final concentrations ranging from 0.08 nM to 5 μM. and were then incubated for 20 min at room temperature at which time LPA (Avanti Polar Lipids Cat #857130C) was added at final concentrations of 10 nM to stimulate the cells. The compound IC50 value was defined as the concentration of test compound which inhibited 50% of the calcium flux induced by LPA alone. IC50 values were determined by fitting data to a 4-parameter logistic equation (GraphPad Prism, San Diego CA).

T1 sequence (Q92633 whole entry): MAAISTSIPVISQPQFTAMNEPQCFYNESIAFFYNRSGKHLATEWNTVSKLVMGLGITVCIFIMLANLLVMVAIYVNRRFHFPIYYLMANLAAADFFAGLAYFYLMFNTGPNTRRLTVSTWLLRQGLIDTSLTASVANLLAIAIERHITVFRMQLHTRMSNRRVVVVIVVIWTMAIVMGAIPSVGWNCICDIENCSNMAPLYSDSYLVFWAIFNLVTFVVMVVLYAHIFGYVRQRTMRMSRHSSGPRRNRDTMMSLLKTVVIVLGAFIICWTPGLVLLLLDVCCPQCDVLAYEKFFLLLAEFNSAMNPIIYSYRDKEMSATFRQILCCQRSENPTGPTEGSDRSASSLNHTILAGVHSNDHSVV

Question: For `CCCCN(C)C(=O)OCc1c(C)noc1-c1ccc(OC2CC3C(C2)C3C(=O)O)cc1` (stereo not drawn) [Example 16], which IC50 is on record?
Answer: 372 nM

Question: With `Cc1noc(-c2ccc(O[C@@H]3C[C@H](C(=O)O)C[C@H]4C[C@H]43)cc2)c1COC(=O)N(C)C1CCCC1` (racemic) [Example 12, (±)-(1R,3R,5R,6R)-5-(4-(4-(((cyclopentyl(methyl)carbamoyl)oxy)methyl)-3-methylisoxazol-5-yl)phenoxy)bicyclo[4.1.0]heptane-3-carboxylic acid] as the molecule, how does the IC50 read?
Answer: 197 nM

Question: For `Cc1noc(-c2ccc(O[C@H]3COC[C@H](C(=O)O)C3)cc2)c1COC(=O)N(C)C1CCCC1` (racemic) [Example 1, (±)-trans-5-(4-(4-(((cyclopentyl(methyl)carbamoyl)oxy)methyl)-3-methylisoxazol-5-yl)phenoxy)tetrahydro-2H-pyran-3-carboxylic acid)], which IC50 is on record?
Answer: 140 nM

Question: For `Cc1noc(-c2ccc(OC3CCC4C(C(=O)O)C34)cc2)c1COC(=O)N(C)C1CCCC1` (racemic) [Example 14, (±)-2-(4-(4-(((Cyclopentyl(methyl)carbamoyl)oxy)methyl)-3-methylisoxazol-5-yl)phenoxy)bicyclo[3.1.0]hexane-6-carboxylic acid], which IC50 is on record?
Answer: 48 nM

Question: Which IC50 does the source give for `Cc1noc(-c2ccc(O[C@@H]3CCO[C@H](C(=O)O)C3)cc2)c1COC(=O)N(C)CCC(C)C` (single isomer, unassigned) [Example 9] here?
Answer: 41 nM

Question: With `Cc1noc(-c2ccc(O[C@H]3CCO[C@H](C(=O)O)C3)cc2)c1COC(=O)N(C)CCC(C)C` [Example 8] as the molecule, how does the IC50 read?
Answer: 1100 nM

Question: With `Cc1noc(-c2ccc(OC3CCCC4C(C(=O)O)C34)cc2)c1COC(=O)N(C)C1CCCC1` (racemic) [Example 17, (±)-2-(4-(4-(((Cyclopentyl(methyl)carbamoyl)oxy)methyl)-3-methylisoxazol-5-yl)phenoxy) bicyclo [4.1.0]heptane-7-carboxylic acid] as the molecule, how does the IC50 read?
Answer: 396 nM

Question: Which IC50 does the source give for `Cc1noc(-c2ccc(OC3CC(C(=O)O)CC4CC43)cc2)c1COC(=O)N(C)C1CCCC1` (racemic) [Example 11, (±)-(1R,3R,5R,6R)-5-(4-(4-(((cyclopentyl(methyl)carbamoyl)oxy)methyl)-3-methylisoxazol-5-yl)phenoxy)bicyclo[4.1.0]heptane-3-carboxylic acid] here?
Answer: 65 nM

Question: For `Cc1noc(-c2ccc(O[C@@H]3COC[C@H](C(=O)O)C3)cc2)c1COC(=O)N(C)C1CCCC1` (racemic) [Example 2, (±)-cis-5-(4-(4-(((cyclopentyl(methyl)carbamoyl)oxy)methyl)-3-methyl-isoxazol-5-yl)phenoxy)tetrahydro-2H-pyran-3-carboxylic acid)], which IC50 is on record?
Answer: 145 nM

Question: For `Cc1noc(-c2ccc(O[C@@H]3COC[C@@H](C(=O)O)C3)cc2)c1COC(=O)N(C)CCC(C)C` (racemic) [Example 3], which IC50 is on record?
Answer: 218 nM

Question: With `Cc1noc(-c2ccc(O[C@H]3C[C@H](C(=O)O)C[C@@H]4C[C@@H]43)cc2)c1COC(=O)N(C)C1CCCC1` (racemic) [Example 10, (±)-(1S,3R,5S,6S)-5-(4-(4-(((cyclopentyl(methyl)carbamoyl)oxy)methyl)-3-methyl-isoxazol-5-yl)phenoxy) bicyclo[4.1.0]heptane-3-carboxylic acid] as the molecule, how does the IC50 read?
Answer: 182 nM

Question: Which IC50 does the source give for `Cc1noc(-c2ccc(O[C@H]3CCO[C@@H](C(=O)O)C3)cc2)c1COC(=O)N(C)C1CCCC1` (racemic) [Example 6, (±)-cis-4-(4-(4-(((cyclopentyl(methyl)carbamoyl)oxy)methyl)-3-methylisoxazol-5-yl)phenoxy)tetrahydro-2H-pyran-2-carboxylic acid] here?
Answer: 290 nM

Question: For `CCCCN(C)C(=O)OCc1c(C)noc1-c1ccc(O[C@@H]2C[C@H](C(=O)O)C[C@@H]3C[C@@H]32)cn1` (racemic) [Example 13, (±)-(1S,3R,5R,6S)-5-((6-(4-(((butyl(methyl)carbamoyl)oxy)methyl)-3-methyl-isoxazol-5-yl)pyridin-3-yl)oxy)bicyclo[4.1.0]heptane-3-carboxylic acid], which IC50 is on record?
Answer: 22 nM

Question: Which IC50 does the source give for `CCCCN(C)C(=O)OCc1c(C)noc1-c1ccc(OC2CCCC3C(C(=O)O)C23)cc1` (stereo not drawn) [Example 18] here?
Answer: 973 nM

Question: For `Cc1noc(-c2ccc(O[C@H]3CCO[C@@H](C(=O)O)C3)cc2)c1COC(=O)N(C)CCC(C)C` (racemic) [Example 7], which IC50 is on record?
Answer: 200 nM

Question: With `Cc1noc(-c2ccc(OC3CC4C(C3)C4C(=O)O)cc2)c1COC(=O)N(C)CC1CCC1` (racemic) [Example 15, (±)-3-(4-(4-((((Cyclobutylmethyl)(methyl)carbamoyl)oxy)methyl)-3-methyl-isoxazol-5-yl)phenoxy)bicyclo[3.1.0]hexane-6-carboxylic acid] as the molecule, how does the IC50 read?
Answer: 563 nM

Question: Which IC50 does the source give for `Cc1noc(-c2ccc(OC3CCCC4C(C(=O)O)C34)cc2)c1COC(=O)N(C)CC1CCC1` (stereo not drawn) [Example 19] here?
Answer: 1340 nM

Question: With `Cc1noc(-c2ccc(O[C@H]3CCO[C@H](C(=O)O)C3)cc2)c1COC(=O)N(C)C1CCCC1` (racemic) [Example 5, (±)-trans-4-(4-(4-(((cyclopentyl(methyl)carbamoyl)oxy)methyl)-3-methylisoxazol-5-yl)phenoxy)tetrahydro-2H-pyran-2-carboxylic acid] as the molecule, how does the IC50 read?
Answer: 560 nM

Question: Which IC50 does the source give for `Cc1noc(-c2ccc(OC3CCCC4C(C(=O)O)C34)cc2)c1COC(=O)N(C)CC1CC1` (stereo not drawn) [Example 20] here?
Answer: 1520 nM

Question: For `Cc1noc(-c2ccc(O[C@@H]3COC[C@H](C(=O)O)C3)cc2)c1COC(=O)N(C)CCC(C)C` [Example 4], which IC50 is on record?
Answer: 102 nM

Test system: IPF patients
Experiment: not given
Settings: 26-week clinical trial, IPF patients (Palmer et al.); cited from earlier work

Question: With `Cc1noc(-c2ccc(-c3ccc(C4(C(=O)O)CC4)cc3)cc2)c1NC(=O)O[C@H](C)c1ccccc1` [BMS-986020] as the molecule, how does the “rate of FVC (forced vital capacity) decline” value read?
Answer: significantly reduce

Test system: nerve-injured mice
Experiment: not given
Settings: pretreatment, nerve-injured mice (Inoue et al.); cited from earlier work

Question: With `C[C@@H](N)[C@H]1CC[C@H](C(=O)Nc2ccncc2)CC1` [Example Y-27632] as the molecule, how does the allodynia and hyperalgesia read?
Answer: completely abolished

Test system: human foetal lung fibroblasts
Experiment: not given
Settings: Tager et al.; cited from earlier work

Question: With `Cc1noc(-c2ccc(CSCCC(=O)O)cc2)c1NC(=O)OC(C)c1ccccc1Cl` (stereo not drawn) [Ki16425] as the molecule, how does the “chemotaxis of human foetal lung fibroblasts induced by BAL from IPF patients” value read?
Answer: blocked

Test system: mouse epithelial renal cell line, MCT
Experiment: not given
Settings: MCT cells, co-treatment with LPA; cited from earlier work

Question: With `Cc1noc(-c2ccc(CSCCC(=O)O)cc2)c1NC(=O)OC(C)c1ccccc1Cl` (stereo not drawn) [Ki16425] as the molecule, how does the “LPA-induced expression of CTGF” value read?
Answer: almost completely suppressed

Test system: UUO mice
Experiment: not given
Settings: cited from earlier work

Question: Which “development of renal fibrosis, profile compared with LPA1 (-/-) mice” value does the source give for `Cc1noc(-c2ccc(CSCCC(=O)O)cc2)c1NC(=O)OC(C)c1ccccc1Cl` (stereo not drawn) [Ki16425] here?
Answer: closely resembled the profile of LPA1 (−/−) mice

Test system: pancreatic cancer cell lines
Experiment: not given
Settings: highly peritoneal metastatic pancreatic cancer cell line; cited from earlier work

Question: With `Cc1noc(-c2ccc(CSCCC(=O)O)cc2)c1NC(=O)OC(C)c1ccccc1Cl` (stereo not drawn) [Ki16425] as the molecule, how does the “LPA-induced and ascites-induced invasion activity” value read?
Answer: blocked

Same assay, conditions: pancreatic cancer cell lines (Yamada et al.); cited from earlier work

Question: With `Cc1noc(-c2ccc(CSCCC(=O)O)cc2)c1NC(=O)OC(C)c1ccccc1Cl` (stereo not drawn) [Ki16425] as the molecule, how does the “in vitro migration in response to LPA and peritoneal fluid (ascites)” value read?
Answer: effectively blocked
